Test results: PubChem BioAssay AID248 (DTP/NCI, 2004)
Where “and” joins values, the source holds several entries; their conditions need not be identical. Equal values may be shown once. Toxic doses and inconclusive results are not listed. No stated cut-off is given here; in the data, active means T/C of 150% or more; inactive means T/C below 125%.

Tested on: L1210 leukemia ip in BDF1 mice, survival T/C
Assay: NCI In Vivo Anticancer Drug Screen. Data for tumor model L1210 Leukemia (intraperitoneal) in B6D2F1 (BDF1) mice
Details: endpoint: mean survival time, higher = longer survival
Procedure, shortened: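 Ratio derived from survival: compound-dosed mice over vehicle-dosed mice, all bearing a transplantable tumor.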

[1] = dose: 100.0 mg/kg/injection, schedule: Q04DX003 (ip), vehicle: Klucel (hydroxypropylcellulose) (HPC)
[2] = dose: 200.0 mg/kg/injection, schedule: Q04DX003 (ip), vehicle: Klucel (hydroxypropylcellulose) (HPC)
[3] = dose: 400.0 mg/kg/injection, schedule: Q04DX003 (ip), vehicle: Klucel (hydroxypropylcellulose) (HPC)
[4] = dose: 100.0 mg/kg/injection, schedule: Q01DX009 (ip), vehicle: Klucel (hydroxypropylcellulose) (HPC)
[5] = dose: 200.0 mg/kg/injection, schedule: Q01DX009 (ip), vehicle: Klucel (hydroxypropylcellulose) (HPC)
[6] = dose: 100.0 mg/kg/injection, schedule: Q04DX003 (ip), vehicle: saline with Tween-80
[7] = dose: 200.0 mg/kg/injection, schedule: Q04DX003 (ip), vehicle: saline with Tween-80
[8] = dose: 400.0 mg/kg/injection, schedule: Q04DX003 (ip), vehicle: saline with Tween-80
[9] = dose: 50.0 mg/kg/injection, schedule: Q01DX009 (ip), vehicle: saline with Tween-80
[10] = dose: 100.0 mg/kg/injection, schedule: Q01DX009 (ip), vehicle: saline with Tween-80
[11] = dose: 200.0 mg/kg/injection, schedule: Q04DX002 (ip), vehicle: Klucel (hydroxypropylcellulose) (HPC)
[12] = dose: 400.0 mg/kg/injection, schedule: Q04DX002 (ip), vehicle: Klucel (hydroxypropylcellulose) (HPC)

Measured: T/C

NC(CSCc1ccccc1)C(=O)O (stereo not drawn)
inactive: dose: 7.0 mg/kg/injection, schedule: Q01DX015 (ip), vehicle: saline 97 % of control | dose: 15.0 mg/kg/injection, schedule: Q01DX015 (ip), vehicle: saline 97 % of control | dose: 29.0 mg/kg/injection, schedule: Q01DX015 (ip), vehicle: saline 101 % of control | dose: 50.0 mg/kg/injection, schedule: Q01DX001 (ip), vehicle: carboxymethylcellulose (CMC) 89 % of control | dose: 58.0 mg/kg/injection, schedule: Q01DX015 (ip), vehicle: saline 97 % of control | dose: 100.0 mg/kg/injection, schedule: Q01DX001 (ip), vehicle: carboxymethylcellulose (CMC) 101 % of control | [1] 100 % of control | dose: 117.0 mg/kg/injection, schedule: Q01DX015 (ip), vehicle: saline 97 % of control | dose: 200.0 mg/kg/injection, schedule: Q01DX001 (ip), vehicle: carboxymethylcellulose (CMC) 89 % of control | [2] 94 % of control | dose: 233.0 mg/kg/injection, schedule: Q01DX015 (ip), vehicle: saline 95 % of control | [3] 96 % of control

N#CC(Cl)(Cl)C(N)=O
inactive: dose: 12.5 mg/kg/injection, schedule: Q04DX002 (ip), vehicle: saline 88 % of control

CN(C)n1cc(C#N)c(=O)[nH]c1=O
inactive: dose: 50.0 mg/kg/injection, schedule: Q01DX009 (ip), vehicle: Klucel (hydroxypropylcellulose) (HPC) 90 % of control | [4] 90 % of control | [1] 100 % of control | [5] 100 % of control | [2] 97 % of control

NC(=S)N/N=C(\c1ccc(Br)cc1)C1CC1
inactive: dose: 2.0 mg/kg/injection, schedule: Q01DX Z (ip), vehicle: carboxymethylcellulose (CMC) 105 % of control | dose: 4.0 mg/kg/injection, schedule: Q01DX Z (ip), vehicle: carboxymethylcellulose (CMC) 102 % of control | dose: 4.0 mg/kg/injection, schedule: Q01DX Z (oral), vehicle: carboxymethylcellulose (CMC) 115 % of control | dose: 8.0 mg/kg/injection, schedule: Q01DX Z (ip), vehicle: carboxymethylcellulose (CMC) 113 % of control | dose: 8.0 mg/kg/injection, schedule: Q01DX Z (oral), vehicle: carboxymethylcellulose (CMC) 115 % of control | dose: 16.0 mg/kg/injection, schedule: Q01DX Z (oral), vehicle: carboxymethylcellulose (CMC) 107 % of control

CCCOP(=O)(OCCC)C(OC(=O)C(C)(C)Br)=C(C)C
inactive: [6] 100 % of control | [7] 100 % of control | [8] 100 % of control

CCCCCCCCC(=O)Nc1nc2c(ncn2C2OC(COC(C)=O)C(OC(C)=O)C2OC(C)=O)c(=O)[nH]1 (stereo not drawn)
inactive: dose: 100.0 mg/kg/injection, schedule: Q01DX005 (ip), vehicle: saline 92 % of control and 97 % of control | dose: 200.0 mg/kg/injection, schedule: Q01DX005 (ip), vehicle: saline 111 % of control and 97 % of control

CCCc1cc(=O)[nH]c(=S)[nH]1
inactive: [1] 93 % of control | [2] 96 % of control | [3] 101 % of control

C[n+]1cccc(SC2CCC3CC4CC3C2C4)c1 (stereo not drawn)
inactive: [9] 91 % of control

CC(=O)Nc1cc(Cl)c2[nH]cnc2n1
inactive: dose: 88.0 mg/kg/injection, schedule: Q01DX001 (ip), vehicle: Klucel (hydroxypropylcellulose) (HPC) 100 % of control | dose: 100.0 mg/kg/injection, schedule: Q01DX001 (ip), vehicle: Klucel (hydroxypropylcellulose) (HPC) 101 % of control | dose: 100.0 mg/kg/injection, schedule: Q04DX003 (ip), vehicle: water 110 % of control | dose: 133.0 mg/kg/injection, schedule: Q01DX001 (ip), vehicle: Klucel (hydroxypropylcellulose) (HPC) 90 % of control | dose: 200.0 mg/kg/injection, schedule: Q01DX001 (ip), vehicle: Klucel (hydroxypropylcellulose) (HPC) 95 % of control | dose: 200.0 mg/kg/injection, schedule: Q04DX003 (ip), vehicle: water 115 % of control | dose: 300.0 mg/kg/injection, schedule: Q01DX001 (ip), vehicle: Klucel (hydroxypropylcellulose) (HPC) 97 % of control

NC(=O)N/N=C/C(c1ccccc1)c1ccccc1
inactive: [6] 96 % of control | [7] 94 % of control | [8] 103 % of control

c1ccc(C2OCC3OC(c4ccccc4)OC(C4SCCS4)C3O2)cc1 (stereo not drawn)
inactive: dose: 100.0 mg/kg/injection, schedule: Q01DX001 (ip), vehicle: gum acacia 92 % of control | dose: 200.0 mg/kg/injection, schedule: Q01DX001 (ip), vehicle: gum acacia 93 % of control | dose: 400.0 mg/kg/injection, schedule: Q01DX001 (ip), vehicle: gum acacia 93 % of control

CCOC(=O)c1cnn(C(N)=O)c1N
inactive: [10] 108 % of control | dose: 200.0 mg/kg/injection, schedule: Q01DX009 (ip), vehicle: saline with Tween-80 96 % of control

CC(C)OC(=O)Nc1ccc(C(F)(F)F)cc1
inactive: dose: 100.0 mg/kg/injection, schedule: Q04DX002 (ip), vehicle: Klucel (hydroxypropylcellulose) (HPC) 97 % of control and 100 % of control | [11] 88 % of control | [12] 103 % of control and 112 % of control

O=C(O)c1ccccc1S(=O)O
inactive: dose: 50.0 mg/kg/injection, schedule: Q04DX002 (ip), vehicle: other 119 % of control | dose: 100.0 mg/kg/injection, schedule: Q04DX002 (ip), vehicle: other 122 % of control | [11] 89 % of control | dose: 200.0 mg/kg/injection, schedule: Q04DX002 (ip), vehicle: other 91 % of control | [12] 103 % of control

CCCCOc1cc(C(=O)O)ccc1[N+](=O)[O-]
inactive: [9] 97 % of control | dose: 50.0 mg/kg/injection, schedule: Q04DX003 (ip), vehicle: saline with Tween-80 96 % of control | [10] 98 % of control | [6] 91 % of control | [7] 102 % of control

NC(=S)N/N=C/c1cc2c(cc1Br)OCO2
inactive: dose: 50.0 mg/kg/injection, schedule: Q01DX001 (ip), vehicle: alcohol 93 % of control | dose: 100.0 mg/kg/injection, schedule: Q01DX001 (ip), vehicle: alcohol 122 % of control | dose: 200.0 mg/kg/injection, schedule: Q01DX001 (ip), vehicle: alcohol 112 % of control | dose: 400.0 mg/kg/injection, schedule: Q01DX001 (ip), vehicle: alcohol 104 % of control

N#CC(C#N)=Cc1ccsc1
inactive: dose: 6.25 mg/kg/injection, schedule: Q01DX009 (ip), vehicle: Klucel (hydroxypropylcellulose) (HPC) 102 % of control | dose: 12.5 mg/kg/injection, schedule: Q01DX009 (ip), vehicle: Klucel (hydroxypropylcellulose) (HPC) 94 % of control | dose: 12.5 mg/kg/injection, schedule: Q04DX003 (ip), vehicle: Klucel (hydroxypropylcellulose) (HPC) 102 % of control | dose: 25.0 mg/kg/injection, schedule: Q01DX009 (ip), vehicle: Klucel (hydroxypropylcellulose) (HPC) 100 % of control | dose: 25.0 mg/kg/injection, schedule: Q04DX003 (ip), vehicle: Klucel (hydroxypropylcellulose) (HPC) 96 % of control

CSc1nc2[nH]cc(C(=O)O)c(=O)c2c(=O)[nH]1
inactive: dose: 100.0 mg/kg/injection, schedule: Q04DX003 (ip), vehicle: saline 104 % of control | dose: 200.0 mg/kg/injection, schedule: Q04DX003 (ip), vehicle: saline 101 % of control | dose: 400.0 mg/kg/injection, schedule: Q04DX003 (ip), vehicle: saline 91 % of control

O=C1C=C(c2ccccc2)Sc2ccccc2N1
inactive: [6] 97 % of control | [7] 100 % of control | [8] 97 % of control

CC(=O)OCC1C2c3ccccc3C(c3ccccc32)C1CBr (stereo not drawn)
inactive: [4] 91 % of control | [1] 93 % of control | [5] 94 % of control | [2] 94 % of control | dose: 400.0 mg/kg/injection, schedule: Q01DX009 (ip), vehicle: Klucel (hydroxypropylcellulose) (HPC) 88 % of control | [3] 98 % of control

COC(=O)c1cccc(O)c1O
inactive: dose: 100.0 mg/kg/injection, schedule: Q01DX005 (ip), vehicle: other 96 % of control | dose: 100.0 mg/kg/injection, schedule: Q01DX009 (ip), vehicle: other 114 % of control | dose: 200.0 mg/kg/injection, schedule: Q01DX005 (ip), vehicle: other 100 % of control | dose: 200.0 mg/kg/injection, schedule: Q01DX009 (ip), vehicle: other 107 % of control | dose: 400.0 mg/kg/injection, schedule: Q01DX005 (ip), vehicle: other 104 % of control | dose: 400.0 mg/kg/injection, schedule: Q01DX009 (ip), vehicle: other 88 % of control
